# Columns and labels:
# [1] = tested on: P. aeruginosa; assay: MIC assay in CAA medium supplemented with ferric iron; type: cell-based, Pseudomonas aeruginosa; details: CAA medium supplemented with ferric iron (100 μM)
# [2] = tested on: P. aeruginosa ΔpvdFΔpchA strain; assay: Antimicrobial susceptibility assay; details: iron-restricted CAA medium, MIC assay, 24 and 48 h
# [3] = tested on: P. aeruginosa ΔpvdFΔpchA with additional deletion of pfeA; assay: Growth kinetics, additional deletion of pfeA; type: cell-based, Pseudomonas aeruginosa; details: 10 μM, CAA medium, 30 °C, 48 h, three independent biological replicates
smiles,measurement,setting,value
"C#CCNC(=O)CN1CCN(CC(=O)NCCNC(=O)c2cccc(O)c2O)CCN(CC(=O)NCCNC(=O)c2cccc(O)c2O)CCN(CC(=O)NCCNC(=O)c2cccc(O)c2O)CC1 [Compound 2, Alkyne-DOTAM-OH]",antimicrobial effect in the presence of excess ferric iron,[1],lost their antimicrobial effect
CNC(C)C1CCC(N)C(OC2C(N)CC(N)C(OC3OCC(C)(O)C(NC)C3O)C2O)O1 (stereo not drawn) [Gentamicin],growth inhibition / antimicrobial activity (in words),[2],exhibited an activity in the expected range
"C#CCCCC(=O)Nc1c(CNC(=O)c2cccc(O)c2O)cc(CNC(=O)c2cccc(O)c2O)cc1CNC(=O)c1cccc(O)c1O [Compound 4, Alkyne-MECAM-OH]",growth in the strain lacking PfeA (OD 600 nm),[3],delayed growth slightly

# — PMC9841981 (Journal of Medicinal Chemistry, 2022)
